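Grown in 96-well plates, cells were treated for 48 hours with each compound at five concentrations. Insufficient inhibition: endpoint recorded as highest concentration tested. GI50 = concentration required for 50% inhibition of growth. TGI is the concentration that stops growth completely.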
Assays:
Test in all cases: growth of human tumour cells (NCI), 48 h
MDA-MB-231 breast = test system: MDA-MB-231 breast
SK-MEL-2 melanoma = test system: SK-MEL-2 melanoma
NCI-H460 lung = test system: NCI-H460 lung
M14 melanoma = test system: M14 melanoma
MALME-3M melanoma = test system: MALME-3M melanoma
HL-60(TB) leukemia = test system: HL-60(TB) leukemia
SF-268 CNS = test system: SF-268 CNS
A549 NSCLC = test system: A549 NSCLC
OVCAR-4 ovarian = test system: OVCAR-4 ovarian
OVCAR-5 ovarian = test system: OVCAR-5 ovarian

Row | Compound | GI50 (MDA-MB-231 breast) [µM] | TGI (MDA-MB-231 breast) [µM] | GI50 (SK-MEL-2 melanoma) [µM] | TGI (SK-MEL-2 melanoma) [µM] | GI50 (NCI-H460 lung) [µM] | TGI (NCI-H460 lung) [µM] | GI50 (M14 melanoma) [µM] | TGI (M14 melanoma) [µM] | GI50 (MALME-3M melanoma) [µM] | TGI (MALME-3M melanoma) [µM] | GI50 (HL-60(TB) leukemia) [µM] | TGI (HL-60(TB) leukemia) [µM] | GI50 (SF-268 CNS) [µM] | TGI (SF-268 CNS) [µM] | GI50 (A549 NSCLC) [µM] | TGI (A549 NSCLC) [µM] | GI50 (OVCAR-4 ovarian) [µM] | TGI (OVCAR-4 ovarian) [µM] | GI50 (OVCAR-5 ovarian) [µM] | TGI (OVCAR-5 ovarian) [µM]
1 | COc1ccc(CCN2CCC(Nc3nc4ccccc4n3Cc3ccc(F)cc3)CC2)cc1 | 1.45 | 2.88 | 2.29 | 4.78 | 2.67 | 9.54 | 1.72 | 3.15 | 1.72 | 3.4 | 1.96 | 3.81 | 1.56 | 2.95 | 1.82 | 3.75 | 1.25 | 2.57 | 1.66 | 3.7
2 | OCC1OC2OC3C(CO)OC(OC4C(CO)OC(OC5C(CO)OC(OC6C(CO)OC(OC7C(CO)OC(OC1C(O)C2O)C(O)C7O)C(O)C6O)C(O)C5O)C(O)C4O)C(O)C3O (stereo not given) (tested in a mixture with another compound) |  | > 100 |  | > 100 |  | > 100 |  | > 100 |  | > 100 |  | 55 |  | > 100 |  | > 100 |  | > 100 |  | > 100
3 | CC(C)NC(=O)OCc1c(COC(=O)NC(C)C)c(-c2ccc(Cl)c(Cl)c2)n2c1CCC2 |  | > 100 |  | > 65.1 |  | 68.3 |  | 55.5 |  | 70.8 |  | 48.2 |  | 67.6 |  | 29.6 |  | > 78.8 |  | 64.1
4 | COc1ccc2c(c1)/C(=C\c1c(Cl)n(C)c3ccccc13)C(=O)N2 | 0.399 | 9.53 | 0.668 | 31.4 | 0.459 | 15.9 | 1.61 | 23.8 | 4.59 | 16.7 | 0.182 | 2.65 | 2.87 | 35.1 | 0.818 | > 100 | 7.07 | > 100 | 3.94 | 15.3
5 | COc1ccc(OC)c(/C=C2\COc3ccc(O)c(O)c3C2=O)c1 | 2.74 | 11.8 | 2.84 | 8.44 | 2.07 | 5.61 | 2.09 | 6.9 | 2.1 | 6.58 | 1.42 | 16.1 | 2.19 | 10.8 | 3.07 | 11.9 | 2.58 | 14.5 | 2.62 | 6.48
6 | Cc1[nH]nc2ccc3nc(-c4ccc5[nH]ncc5c4)c4c(c3c12)CCCC4 | 1.71 | 12.7 | 0.476 | 2.48 | 0.832 | 11.2 | 0.604 | 13.3 | 1.33 | 6.32 | 1.73 | 4.32 | 1.97 | 17.8 | 0.932 | 12.4 | 2.12 | 28 | 2.53 | 13.9
7 | H-HIIKKIRTWYRKAWHVLGKV-NH2 | 6.47 | 22.3 | 5.31 | 28.2 | 3.34 | 92.4 | 4.17 | 22.8 | 2.29 | 5.25 | 4.29 | 23.3 | 3.43 | 19.8 | 5.51 | > 100 | 12.8 | 47.5 | 6.22 | 20.5
